# Source: patent US20240262795A1, “PYRAZINE COMPOUNDS AS INHIBITORS OF FLT3” (Biomea Fusion, Inc., priority 2021, published 2024)
# pIC50: −log10 of the molar value.
# Experiments:
# Type in all cases: cell-based, human
# K-562 = assay: Proliferation inhibition, CellTiter-Glo, K-562; conditions: Homo sapiens, K562, 96 h; K-562 cells, IC50 (4 days), CellTiter-Glo; read-out: K-562 IC50
# Source text: (§1) The proliferation inhibitory effect was investigated in human AML cell lines MOLM-13 (AddexBio: C0003003) and MV-4-11 (ATCC: CRL-9591), and CML cell line […] (ATCC: CRL-3343). Molm-13 is heterozygous for FLT3-ITD mutation, while MV4-11 is homozygous for FLT3-ITD (Quentmeier H, et al., Leukemia. 17(1):120-4). […] Cells were maintained in RPMI-1640 medium (ThermoFisher catalog no. 61870036) supplemented with 10% of Heat Inactivated FBS (ThermoFisher catalog no. A31605) and 1% Pen-Strep (ThermoFisher catalog no. 10378016) and cultured at 37° C. in a humidified incubator with 5% CO2. Cell lines were grown by […], and the cells were maintained in a range 70%-80% confluency.
# (§2) ATP is present in all metabolically active cells and is considered as a marker for cell viability and proliferation. Metabolic cell activity was determined using the CellTiter-Glo kit (Promega catalog no. G7572), an ATP monitoring system based on the production of luminescence by the reaction of ATP with added UltraGlo® recombinant luciferase (Kawano et al., 2016, PLOS One, 8; 11(7):e0158888), according to the supplier's experimental recommendations. The assay was based on a 96 well plate format.
# (§3) Test compounds were dissolved at 10 mM in DMSO (Sigma catalog no. D8418; purity≥99.9%) and stored at −20° C. Eight concentrations of test compound were assessed in duplicate in an individual test occasion in parallel in the selected cell lines. Gilteratinib and FF-10101 were used as reference compounds and tested in duplicate at eight concentrations. 100% of proliferation is represented by the untreated cells (0.2% DMSO).
# (§4) On the day of the experiment, cells were quantified with the cell viability analyzer NucleoCounter (Chemometec NC-200) and diluted with fresh medium to obtain the cell density of about 10,000 cells per 200 μL medium. 200 μL of cell suspension were added into wells in the 96 well plate.
# (§5) After 2 hours from seeding cells, compounds at desired concentrations were added using a D300e compound dispenser (Life Sciences Tecan D300) with shaking between each compound dispensed. Assay plates were incubated at 37° C. in a humidified incubator with 5% CO2.
# (§6) On day 4 (˜96 hrs after compound addition) assay plates were equilibrated at room temperature for approximately 15 min, and then 40 μL/well of the Promega CellTiterGlo® reagent was added. Contents were mixed for 5 min on an orbital shaker to promote cell lysis, and then incubated at room temperature for an additional 10 min in the dark to stabilize the luminescent signal. Luminescence was read by using a GloMlax GM300 plate reader (Promega) using the luminescence for 96 well plate standard protocol.
# (§7) Results were analyzed by GraphPad (Prism) and IC50 values were calculated by non-linear regression using four parameter-logistic equation.
# MOLM-13 = assay: Proliferation inhibition, CellTiter-Glo, MOLM-13; conditions: Homo sapiens, 96 h; MOLM-13 cells, IC50 (4 days), CellTiter-Glo; read-out: MOLM-13 IC50
# Source text: as §1, §2, §3, §4, §5, §6, §7
# MV-4-11 = assay: Proliferation inhibition, CellTiter-Glo, MV-4-11; conditions: Homo sapiens, MV4-11, 96 h; MV-4:11 cells, IC50 (4 days), CellTiter-Glo; read-out: MV-4:11 IC50
# Source text: as §1, §2, §3, §4, §5, §6, §7
pIC50 (K-562),pIC50 (MOLM-13),pIC50 (MV-4-11),SMILES
< 6.30,7.00 to 8.00,8.00 to 9.00,"Cc1nc(Nc2cc(F)cc(CCNC(=O)[C@H](C)N(C)C(=O)/C=C/CN(C)C)c2)c(C(N)=O)nc1C [Compound 245, 3-[3-[2-[[(2S)-2-[[(E)-4-(dimethylamino)but-2-enoyl]-methyl-amino]propanoyl]amino]ethyl]-5-fluoro-anilino]-5,6-dimethyl-pyrazine-2-carboxamide]"
< 6.30,7.00 to 8.00,7.00 to 8.00,"C=CC(=O)N(C)[C@@H](C)C(=O)NCCc1cccc(Nc2nc(C3CC3)c(C)nc2C(N)=O)c1 [Compound 222, 5-cyclopropyl-6-methyl-3-[3-[2-[[(2S)-2-[methyl(prop-2-enoyl)amino]propanoyl]amino]ethyl]anilino]pyrazine-2-carboxamide]"
< 6.30,7.00 to 8.00,8.00 to 9.00,"[2H]C([2H])([2H])N(C/C=C/C(=O)N(C)[C@@H](C)C(=O)NCCc1cccc(Nc2nc(C)c(CC)nc2C(N)=O)c1)C([2H])([2H])[2H] [Compound 164, 3-[3-[2-[[(2S)-2-[[(E)-4-[bis(trideuteriomethyl)amino]but-2-enoyl]-methyl-amino]propanoyl]amino]ethyl]anilino]-6-ethyl-5-methyl-pyrazine-2-carboxamide]"
< 6.30,> 9.00,> 9.00,"[2H]C([2H])([2H])N(C/C=C/C(=O)N(C)[C@@H](C)C(=O)NCCc1cccc(Nc2nc(N(C)C(C)C)c(CC)nc2C(N)=O)c1)C([2H])([2H])[2H] [Compound 249, (S,E)-3-((3-(2-(2-(4-(bis(methyl-d3)amino)-N-methylbut-2-enamido)propanamido)ethyl)phenyl)amino)-6-ethyl-5-(isopropyl(methyl)amino)pyrazine-2-carboxamide]"
< 6.30,8.00 to 9.00,> 9.00,"Cc1nc(C(N)=O)c(Nc2cccc(CCNC(=O)[C@H](C)N(C)C(=O)/C=C/CN3CCC3)c2)nc1N(C)C [Compound 230, (S,E)-3-((3-(2-(2-(4-(azetidin-1-yl)-N-methylbut-2-enamido)propanamido)ethyl)phenyl)amino)-5-(dimethylamino)-6-methylpyrazine-2-carboxamide]"
< 6.30,7.00 to 8.00,8.00 to 9.00,"CCc1nc(Nc2cccc(CCNC(=O)[C@H](C)N(C)C(=O)/C=C/CN(C)C)c2)c(C(N)=O)nc1C [Compound 255, 3-[3-[2-[[(2S)-2-[[(E)-4-(dimethylamino)but-2-enoyl]-methyl-amino]propanoyl]amino]ethyl]anilino]-5-ethyl-6-methyl-pyrazine-2-carboxamide]"
< 6.30,8.00 to 9.00,8.00 to 9.00,"CCc1nc(C(N)=O)c(Nc2ccc(F)c(CCNC(=O)CN(C)C(=O)/C=C/CN3CCC3)c2)nc1C1CC1 [Compound 607, (E)-3-((3-(2-(2-(4-(azetidin-1-yl)-N-methylbut-2-enamido)acetamido)ethyl)-4-fluorophenyl)amino)-5-cyclopropyl-6-ethylpyrazine-2-carboxamide]"
< 6.30,6.30 to 7.00,8.00 to 9.00,"C=CC(=O)N(C)CC(=O)NCCc1cccc(Nc2nc(N(C)C(C)C)c(C)nc2C(N)=O)c1 [Compound 309, 5-[isopropyl(methyl)amino]-6-methyl-3-[3-[2-[[2-[methyl(prop-2-enoyl)amino]acetyl]amino]ethyl]anilino]pyrazine-2-carboxamide]"
< 6.30,6.30 to 7.00,7.00 to 8.00,"CCc1nc(C(N)=O)c(Nc2cccc(CCNC(=O)[C@H](C)N(C)C(=O)/C=C/CN(C)C)n2)nc1C1CC1 [Compound 313, 5-cyclopropyl-3-[[6-[2-[[(2S)-2-[[(E)-4-(dimethylamino)but-2-enoyl]-methyl-amino]propanoyl]amino]ethyl]-2-pyridyl]amino]-6-ethyl-pyrazine-2-carboxamide]"
< 6.30,8.00 to 9.00,8.00 to 9.00,"CCc1nc(C(N)=O)c(Nc2cc(F)cc(CCNC(=O)[C@H](C)N(C)C(=O)/C=C/CN(C)C)c2)nc1C [Compound 163, 3-[3-[2-[[(2S)-2-[[(E)-4-(dimethylamino)but-2-enoyl]-methyl-amino]propanoyl]amino]ethyl]-5-fluoro-anilino]-6-ethyl-5-methyl-pyrazine-2-carboxamide]"
< 6.30,< 6.30,< 6.30,"CCc1nc(C(N)=O)c(Nc2cccc([C@@H](C)CNC(=O)[C@H](C)N(C)C(=O)/C=C/CN(C)C)c2)nc1C [Compound 326, 3-((3-((R)-1-((S)-2-((E)-4-(dimethylamino)-N-methylbut-2-enamido)propanamido)propan-2-yl)phenyl)amino)-6-ethyl-5-methylpyrazine-2-carboxamide]"
< 6.30,8.00 to 9.00,8.00 to 9.00,"CCc1nc(C(N)=O)c(Nc2cccc(CCNC(=O)[C@H](C)N(C)C(=O)/C=C/CNC)c2)nc1C [Compound 227, (S,E)-6-ethyl-5-methyl-3-((3-(2-(2-(N-methyl-4-(methylamino)but-2-enamido)propanamido)ethyl)phenyl)amino)pyrazine-2-carboxamide]"
< 6.30,< 6.30,< 6.30,"C=CC(=O)N(C)[C@@H](C)C(=O)NCCc1cccc(Nc2nc(C)c(C)nc2C(N)=O)c1 [Compound 238, 5,6-dimethyl-3-[3-[2-[[(2S)-2-[methyl(prop-2-enoyl)amino]propanoyl]amino]ethyl]anilino]pyrazine-2-carboxamide]"
< 6.30,< 6.30,7.00 to 8.00,"CCc1nc(C(N)=O)c(Nc2cccc(CCNC(=O)[C@H](C)N(C)C(=O)/C=C/CN3CC(F)C3)c2)nc1C [Compound 240, 6-ethyl-3-[3-[2-[[(2S)-2-[[(E)-4-(3-fluoroazetidin-1-yl)but-2-enoyl]-methyl-amino]propanoyl]amino]ethyl]anilino]-5-methyl-pyrazine-2-carboxamide]"
< 6.30,6.30 to 7.00,7.00 to 8.00,"CCc1nc(C(N)=O)c(Nc2cccc(C[C@H](C)NC(=O)CN(C)C(=O)/C=C/CN(C)C)c2)nc1C [Compound 312, 3-[3-[(2S)-2-[[2-[[(E)-4-(dimethylamino)but-2-enoyl]-methyl-amino]acetyl]amino]propyl]anilino]-6-ethyl-5-methyl-pyrazine-2-carboxamide]"
< 6.30,8.00 to 9.00,> 9.00,"CCc1nc(C(N)=O)c(Nc2cccc(CCNC(=O)[C@H](C)N(C)C(=O)C#CCN(C)C)c2)nc1C [Compound 244, (S)-3-((3-(2-(2-(4-(dimethylamino)-N-methylbut-2-ynamido)propanamido)ethyl)phenyl)amino)-6-ethyl-5-methylpyrazine-2-carboxamide]"
< 6.30,< 6.30,7.00 to 8.00,"CCc1nc(C(N)=O)c(Nc2cccc(CCNC(=O)[C@@H](C)N(C)C(=O)/C=C/CN(C)C)c2)nc1C [Compound 234, 3-[3-[2-[[(2R)-2-[[(E)-4-(dimethylamino)but-2-enoyl]-methyl-amino]propanoyl]amino]ethyl]anilino]-6-ethyl-5-methyl-pyrazine-2-carboxamide]"
